Series [1] has as its target neutral endopeptidase (NEP) (Homo sapiens, UniProt P08473). Put plainly: In vitro neutral endopeptidase (NEP) cleavage assay. The conditions noted are these: human, pH 7. The protocol: To determine the effects of amino acid substitutions, amino acid extensions, backbone modifications, side chain modifications and PEGylation on the susceptibility of CNP variants to neutral endopeptidase (NEP) cleavage, peptide cleavage assays were carried out using an in vitro assay that monitored disappearance of the non-cleaved CNP variant.
Recombinant human NEP (1 ug/mL final concentration) was added to 100 uM CNP variant diluted in 0.1 M Tris, pH 7. The reaction mixture was incubated at 37° C. for various periods of time, and the reaction was quenched with EDTA (10 mM final) followed by heat denaturation. The reaction mixture was reduced and then the reaction products were analyzed using HPLC and mass spectroscopy. The half-life of the CNP variant was calculated based on the disappearance of intact CNP variant over time.

In series [2] the target is T1, NPR-B (Mus musculus, UniProt Q6VVW5).
T1 construct: Murine NIH3T3 cells express endogenously the CNP signaling receptor, NPR-B; endogenous in cells; host or cells: NIH3T3 (murine fibroblasts)
T1 sequence (Q6VVW5 17-1047): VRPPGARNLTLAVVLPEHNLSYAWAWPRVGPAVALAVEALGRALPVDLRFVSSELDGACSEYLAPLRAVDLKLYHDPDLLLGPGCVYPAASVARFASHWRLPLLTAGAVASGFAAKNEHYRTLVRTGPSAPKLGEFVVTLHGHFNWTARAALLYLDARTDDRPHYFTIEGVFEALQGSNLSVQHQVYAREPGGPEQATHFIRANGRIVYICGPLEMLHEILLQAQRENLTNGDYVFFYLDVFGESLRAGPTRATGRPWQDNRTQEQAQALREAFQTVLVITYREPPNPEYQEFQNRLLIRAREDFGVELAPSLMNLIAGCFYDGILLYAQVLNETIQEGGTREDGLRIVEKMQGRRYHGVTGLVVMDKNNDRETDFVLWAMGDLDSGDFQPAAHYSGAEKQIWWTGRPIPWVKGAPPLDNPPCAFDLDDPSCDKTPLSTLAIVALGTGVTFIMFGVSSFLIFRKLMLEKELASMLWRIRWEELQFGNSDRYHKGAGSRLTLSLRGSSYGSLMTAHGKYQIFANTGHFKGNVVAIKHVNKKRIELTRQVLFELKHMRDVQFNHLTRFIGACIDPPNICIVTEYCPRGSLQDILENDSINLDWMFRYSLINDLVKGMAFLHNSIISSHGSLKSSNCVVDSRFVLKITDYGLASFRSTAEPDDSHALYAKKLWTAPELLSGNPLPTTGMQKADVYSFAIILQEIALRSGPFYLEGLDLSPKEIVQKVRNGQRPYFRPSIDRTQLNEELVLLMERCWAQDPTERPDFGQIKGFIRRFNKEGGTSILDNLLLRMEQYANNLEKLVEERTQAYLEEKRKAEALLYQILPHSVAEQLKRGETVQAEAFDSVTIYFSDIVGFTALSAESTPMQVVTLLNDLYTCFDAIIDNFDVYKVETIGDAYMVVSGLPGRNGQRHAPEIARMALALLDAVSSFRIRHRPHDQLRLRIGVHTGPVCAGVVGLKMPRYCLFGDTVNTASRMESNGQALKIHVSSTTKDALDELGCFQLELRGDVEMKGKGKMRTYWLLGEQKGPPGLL
Put plainly: Stimulation of cGMP production in NIH3T3 cells. The conditions noted are these: for cGMP response relative to 1 uM CNP22 (%) at 0.01 µM: read-out: cGMP Response rel. to 1 uM CNP22, 10 nM; for cGMP response relative to 1 uM CNP22 (%) at 1 µM: read-out: cGMP Response rel. to 1 uM CNP22, 1 uM. Type of series: cell-based, Murine.

Where [3] appears, read: recombinant human neutral endopeptidase (NEP).
Where [4] appears, read: NIH3T3 cells, 10 nM natriuretic peptide, normalized to cell number and cGMP production with 1 uM wtCNP22.
The mark [5] stands for this setting: NIH3T3 cells, 1 uM natriuretic peptide, normalized to cell number and cGMP production with 1 uM wtCNP22.

The text below walks through data of patent publication US8377884B2, “Variants of C-type natriuretic peptides” (Biomarin Pharmaceutical Inc., priority 2007, dated 2013).

Read-outs that look alike come from different tables or passages of the source. Bridge positions count the residues as written; N and C are the ends. Square brackets hold non-standard residues; d marks the D form. Ends that are not written are not given here. Peptide text beside a SMILES is read from it. * marks the point of attachment. Phe(3,4-Cl2) = N[C@@H](Cc1ccc(Cl)c(Cl)c1)C(=O)O; Phe(3-Me) = Cc1cccc(C[C@H](N)C(=O)O)c1; Cit = NC(=O)NCCC[C@H](N)C(=O)O; PEO24 = monodispersed, 1.2 kDa; Heptanoyl = CCCCCCC(=O)*; Pentanoyl = CCCCC(=O)*

neutral endopeptidase (NEP), sequence (P08473 whole entry): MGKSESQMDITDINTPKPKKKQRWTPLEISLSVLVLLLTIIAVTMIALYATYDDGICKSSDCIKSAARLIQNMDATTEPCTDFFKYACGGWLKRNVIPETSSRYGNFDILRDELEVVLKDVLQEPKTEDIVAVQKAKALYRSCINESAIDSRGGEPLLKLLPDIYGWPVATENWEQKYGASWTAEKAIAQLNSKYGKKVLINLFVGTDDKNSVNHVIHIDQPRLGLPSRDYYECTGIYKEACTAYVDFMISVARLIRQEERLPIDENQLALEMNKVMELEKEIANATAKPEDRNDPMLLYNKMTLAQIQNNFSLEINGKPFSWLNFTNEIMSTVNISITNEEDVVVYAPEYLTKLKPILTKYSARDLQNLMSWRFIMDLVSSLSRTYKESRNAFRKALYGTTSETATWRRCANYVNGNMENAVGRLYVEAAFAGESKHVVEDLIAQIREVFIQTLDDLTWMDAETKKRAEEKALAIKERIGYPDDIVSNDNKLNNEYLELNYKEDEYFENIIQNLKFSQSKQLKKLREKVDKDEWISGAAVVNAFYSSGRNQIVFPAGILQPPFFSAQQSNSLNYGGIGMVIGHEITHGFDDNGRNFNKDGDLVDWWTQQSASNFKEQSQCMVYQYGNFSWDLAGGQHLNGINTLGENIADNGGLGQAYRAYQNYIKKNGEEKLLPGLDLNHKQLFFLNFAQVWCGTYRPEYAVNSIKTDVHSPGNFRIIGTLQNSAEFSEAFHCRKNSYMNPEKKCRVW

As a reminder, the half-life is the time in which the quantity being followed falls by half. `CCCCC(=O)N[C@@H](CCC(=O)O)C(=O)N[C@@H](CC(C)C)C(=O)N[C@@H](CO)C(=O)N[C@@H](CCC(=O)O)C(=O)NCC(=O)N[C@H]1CSSC[C@@H](C(=O)O)NC(=O)CNC(=O)[C@H](CC(C)C)NC(=O)CNC(=O)[C@H](CO)NC(=O)[C@H](CCSC)NC(=O)[C@H](CO)NC(=O)CNC(=O)[C@H]([C@@H](C)CC)NC(=O)[C@H](CCCNC(=N)N)NC(=O)[C@H](CC(=O)O)NC(=O)[C@H](CC(C)C)NC(=O)[C@H](CCCCN)NC(=O)[C@H](CC(C)C)NC(=O)CNC(=O)[C@H](Cc2ccccc2)NC1=O` [AV] (Pentanoyl-ELSEGCFGLKLDRIGSMSGLGC-OH; disulfide 6-22 (inferred); C-terminus assumed): the half-life at 100 uM in series [1] (setting [3]) turned out to be 2 h. `CC[C@H](C)[C@@H]1NC(=O)[C@H](CCCNC(=N)N)NC(=O)[C@H](CC(=O)O)NC(=O)[C@H](CC(C)C)NC(=O)[C@H](CCCCN)NC(=O)[C@H](CC(C)C)NC(=O)CNC(=O)[C@H](Cc2cccc(C)c2)NC(=O)[C@@H](NC(=O)CNC(=O)CNC(=O)[C@H](CO)NC(=O)[C@H](CC(C)C)NC(=O)CN)CSSC[C@@H](C(=O)O)NC(=O)CNC(=O)[C@H](CC(C)C)NC(=O)CNC(=O)[C@H](CO)NC(=O)[C@H](CCSC)NC(=O)[C@H](CO)NC(=O)CNC1=O` [X] (H-GLSGGC[Phe(3-Me)]GLKLDRIGSMSGLGC-OH; disulfide 6-22): in series [1] (setting [3]), the half-life at 100 uM was determined as 1.13 h.

`CCCCCCC(=O)N[C@@H](CCC(=O)O)C(=O)N[C@@H](CC(C)C)C(=O)N[C@@H](CO)C(=O)N[C@@H](CCC(=O)O)C(=O)NCC(=O)N[C@H]1CSSC[C@@H](C(=O)O)NC(=O)CNC(=O)[C@H](CC(C)C)NC(=O)CNC(=O)[C@H](CO)NC(=O)[C@H](CCSC)NC(=O)[C@H](CO)NC(=O)CNC(=O)[C@H]([C@@H](C)CC)NC(=O)[C@H](CCCNC(=N)N)NC(=O)[C@H](CC(=O)O)NC(=O)[C@H](CC(C)C)NC(=O)[C@H](CCCCN)NC(=O)[C@H](CC(C)C)NC(=O)CNC(=O)[C@H](Cc2ccccc2)NC1=O` [AW] (Heptanoyl-ELSEGCFGLKLDRIGSMSGLGC-OH; disulfide 6-22; C-terminus assumed) gave a half-life at 100 uM in series [1] below 0.333 h.

The compound `CC[C@H](C)[C@@H]1NC(=O)[C@H](CCCNC(=N)N)NC(=O)[C@H](CC(=O)O)NC(=O)[C@H](CC(C)C)NC(=O)[C@H](CCCCN)NC(=O)[C@H](CC(C)C)N(C)C(=O)CNC(=O)[C@H](Cc2ccccc2)NC[C@@H](NC(=O)CNC(=O)[C@H](CCCCN)NC(=O)[C@H](CO)NC(=O)[C@H](CC(C)C)NC(=O)CN)CSSC[C@@H](C(=O)O)NC(=O)CNC(=O)[C@H](CC(C)C)N(C)C(=O)CNC(=O)[C@H](CO)NC(=O)[C@H](CCSC)NC(=O)[C@H](CO)NC(=O)CNC1=O` [J] returned a half-life at 100 uM in series [1] of 0.833 h. As to `CC[C@H](C)[C@@H]1NC(=O)[C@H](CCCNC(=N)N)NC(=O)[C@H](CC(=O)O)NC(=O)[C@H](CC(C)C)NC(=O)[C@H](CCCCN)NC(=O)[C@H](CC(C)C)NC(=O)CNC(=O)[C@H](Cc2ccc(Cl)c(Cl)c2)NC(=O)[C@@H](NC(=O)CNC(=O)CNC(=O)[C@H](CO)NC(=O)[C@H](CC(C)C)NC(=O)CN)CSSC[C@@H](C(=O)O)NC(=O)CNC(=O)[C@H](CC(C)C)NC(=O)CNC(=O)[C@H](CO)NC(=O)[C@H](CCSC)NC(=O)[C@H](CO)NC(=O)CNC1=O` [V] (H-GLSGGC[Phe(3,4-Cl2)]GLKLDRIGSMSGLGC-OH; disulfide 6-22), the half-life at 100 uM in series [1] (setting [3]) stood at 1.13 h.

`CC[C@H](C)[C@@H]1NC(=O)[C@H](CCCNC(=N)N)NC(=O)[C@H](CC(=O)O)NC(=O)[C@H](CC(C)C)NC(=O)[C@H](CCCCN)NC(=O)[C@H]([C@@H](C)O)NC(=O)CNC(=O)[C@H](Cc2ccccc2)NC(=O)[C@@H](NC(=O)CNC(=O)[C@H](CCCNC(=N)N)NC(=O)[C@H](CO)NC(=O)[C@H](CC(C)C)NC(=O)CN)CSSC[C@@H](C(=O)O)NC(=O)CNC(=O)[C@H](CC(C)C)NC(=O)CNC(=O)[C@H](CO)NC(=O)[C@H](CCSC)NC(=O)[C@H](CO)NC(=O)CNC1=O` [AD] (H-GLSRGCFGTKLDRIGSMSGLGC-OH; disulfide 6-22): the cGMP response relative to 1 uM CNP22 (%) at 0.01 µM in series [2] (setting [4]) is 4%. Further, the cGMP response relative to 1 uM CNP22 (%) at 1 µM in series [2] (setting [5]) came out at 68%. In the case of `CC[C@H](C)[C@@H]1NC(=O)[C@H](CCCNC(=N)N)NC(=O)[C@H](CC(=O)O)NC(=O)[C@H](CC(C)C)NC(=O)[C@H](CCCCN)NC(=O)[C@H](CC(C)C)NC(=O)CNC(=O)[C@H](Cc2ccccc2)NC(=O)[C@@H](N)CSSC[C@@H](C(=O)O)NC(=O)CNC(=O)[C@H](CC(C)C)NC(=O)CNC(=O)[C@H](CO)NC(=O)[C@H](CCSC)NC(=O)[C@H](CO)NC(=O)CNC1=O` [AX] (H-CFGLKLDRIGSMSGLGC-OH; disulfide 1-17 (inferred); N-terminus and C-terminus assumed), in series [2] (setting [4]), the cGMP response relative to 1 uM CNP22 (%) at 0.01 µM turned out to be 18%. Besides, the cGMP response relative to 1 uM CNP22 (%) at 1 µM in series [2] (setting [5]) is 69%. With “PEO24-CNP22, K4R: CNP22, K4R conjugated at the N-terminus to PEO24 (PEO24-GLSRGCFGLKLDRIGSMSGLGC; disulfide 6-22 (inferred); UniProt P23582 105-126, looked up, variant K4R)”, the “cGMP Response rel. to 1 uM CNP22, 10 nM” value in series [2] (setting [4]) amounted to 15. Moreover, in series [2] (setting [5]), the “cGMP Response rel. to 1 uM CNP22, 1 uM” value was 56. Turning to `CC[C@H](C)[C@@H]1NC(=O)[C@H](CCCNC(=N)N)NC(=O)[C@H](CC(=O)O)NC(=O)[C@H](CC(C)C)NC(=O)[C@H](CCCCN)NC(=O)[C@H](CC(C)C)NC(=O)CNC(=O)[C@H](Cc2ccccc2)NC(=O)[C@@H](NC(=O)CNC(=O)[C@H](CCCNC(=N)N)NC(=O)[C@H](CO)NC(=O)[C@H](CC(C)C)NC(=O)CN)CSSC[C@@H](C(=O)O)NC(=O)CNC(=O)[C@H](CC(C)C)NC(=O)CNC(=O)[C@H](CO)NC(=O)[C@H](CCSC)NC(=O)[C@H](CO)NC(=O)[C@H](CCCNC(N)=O)NC1=O` [AF] (H-GLSRGCFGLKLDRI[Cit]SMSGLGC-OH; disulfide 6-22 (inferred); N-terminus and C-terminus assumed), in series [2] (NIH3T3, […]), the cGMP response relative to 1 uM CNP22 (%) at 0.01 µM is 1.4% and the cGMP response relative to 1 uM CNP22 (%) at 1 µM was found to be 2%. Regarding `CC[C@H](C)[C@@H]1NC(=O)[C@H](CCCNC(=N)N)NC(=O)[C@H](CC(=O)O)NC(=O)[C@H](CC(C)C)NC(=O)[C@H](CCCCN)NC(=O)[C@H](CC(C)C)NC(=O)CNC(=O)[C@H](Cc2ccccc2)NC(=O)[C@@H](NC(=O)CNC(=O)[C@H](CCCCN)NC(=O)[C@H](CO)NC(=O)[C@H](CC(C)C)NC(=O)CNC(=O)[C@H](CCC(N)=O)NC(=O)[C@H](CCC(N)=O)NC(=O)[C@H](CC(N)=O)NC(=O)[C@H](C)NC(=O)CNC(=O)[C@H](Cc2c[nH]cn2)NC(=O)[C@@H]2CCCN2C(=O)[C@H](Cc2c[nH]cn2)NC(=O)[C@H](CCC(N)=O)NC(=O)[C@H](CCC(=O)O)NC(=O)[C@H](Cc2c[nH]cn2)NC(=O)[C@H](CO)NC(=O)[C@H](Cc2c[nH]cn2)NC(=O)[C@H](Cc2c[nH]cn2)NC(=O)CN)CSSC[C@@H](C(=O)O)NC(=O)CNC(=O)[C@H](CC(C)C)NC(=O)CNC(=O)[C@H](CO)NC(=O)[C@H](CCSC)NC(=O)[C@H](CO)NC(=O)CNC1=O` [CQ] (H-GHHSHEQHPHGANQQGLSKGCFGLKLDRIGSMSGLGC-OH; disulfide 21-37 (inferred); N-terminus and C-terminus assumed), in series [2] (NIH3T3, […]), the cGMP response relative to 1 uM CNP22 (%) at 0.01 µM was found to be 16% and the cGMP response relative to 1 uM CNP22 (%) at 1 µM is 95%.
